Biological target: LeuT (Aquifex aeolicus, UniProt O67854)
Assay: scintillation proximity assay, displacement of [3H]leucine by alanine
Conditions: Na+ at its K0.5 (11.2 mM), pH 7.4 binding buffer, DDM

How did the KI-ala turn out when `C[C@H](N)C(=O)O` [alanine] was run?
Its KI-ala is 2.56 ± 0.51 µM.
